Usually IC50 stands for the concentration that gives 50% inhibition. Lower therefore signals higher potency. What is called Kd is the equilibrium constant for the complex coming apart. A low value points to a tighter complex.

Assay [1] is described as follows: Inhibition of human alpha thrombin by chromogenic substrate enzyme assay.
The nature of assay [2]: Inhibition of human alpha thrombin by surface plasmon resonance assay. (In SPR one partner is held on a chip, and binding of the other changes the refractive index at the surface.)

Where only a bound is given, the exact number is not on record here.

In assay [1], `O=C(NCc1cccs1)[C@@H]1CCCN1C(=O)Cc1ccc2c(c1)OCO2` showed a 50% inhibitory concentration (IC50) greater than 400 µM. In assay [2], this molecule registered a Kd of 250 µM.

`CNC(=O)[C@@H]1CCCN1C(=O)CC1CCCCC1` had an IC50 in assay [1] greater than 400 µM. The same molecule showed a Kd in assay [2] greater than 1000 µM.

Regarding `COCCNC(=O)[C@@H]1CCCN1C(=O)CCc1ccc(Cl)cc1`, the IC50 in assay [1] was greater than 400 µM. This molecule also registered an equilibrium dissociation constant (Kd) in assay [2] of 620 µM.

For the molecule `CCCNC(=O)[C@@H]1CCCN1C(=O)[C@H](N)Cc1ccc(Cl)cc1`, inhibition in assay [1] was half-maximal at 210 µM (IC50). Further, binding in assay [2] was put at a Kd of 45 µM.

As for `CCCNC(=O)[C@@H]1CCCN1C(=O)[C@H](N)C(c1ccccc1)c1ccccc1`, in assay [1], half-maximal inhibition (IC50) was put at 18 µM.

Regarding `COCCNC(=O)[C@@H]1CCCN1C(=O)[C@H](N)C(c1ccccc1)c1ccccc1`, in assay [1], the IC50 worked out at 89 µM. Besides, in assay [2], the equilibrium dissociation constant (Kd) was found to be 6.8 µM.

For the molecule `CCCNC(=O)[C@@H]1CCCN1C(=O)CCc1ccc(Cl)cc1`, in assay [1], the IC50 was greater than 400 µM. Further, the Kd in assay [2] was greater than 1000 µM.

For `CC(C)CNC(=O)[C@@H]1CCCN1C(=O)[C@H](N)C1CCCCC1`, the IC50 in assay [1] came out at 230 µM. In assay [2], this molecule came in with a Kd of 49 µM.

For the molecule `N[C@@H](C(=O)N1CCC[C@H]1C(=O)NCC1CCCCC1)C1CCCCC1`, half-maximal inhibition in assay [1] (IC50) required 20 µM. The molecule further showed a Kd in assay [2] of 9 µM.

As for `CNC(=O)[C@@H]1CCCN1C(=O)CC(c1ccccc1)c1ccccc1`, the IC50 in assay [1] is greater than 400 µM. Moreover, in assay [2], the Kd is greater than 1000 µM.

As to `COCCNC(=O)[C@@H]1CCCN1C(=O)CC1CCCCC1`, the half-maximal inhibitory concentration (IC50) in assay [1] is greater than 400 µM. The molecule further gave a Kd in assay [2] greater than 1000 µM.

Molecule `CNC(=O)[C@@H]1CCCN1C(=O)CC1(O)c2ccccc2-c2ccccc21` displayed an IC50 in assay [1] greater than 400 µM. For the same molecule, the dissociation constant Kd in assay [2] is greater than 1000 µM.

In assay [1], `COCCNC(=O)[C@@H]1CCCN1C(=O)CC1(O)c2ccccc2-c2ccccc21` showed an IC50 greater than 400 µM. Binding in assay [2] was characterised by a dissociation constant (Kd) of 750 µM.

For the molecule `CNC(=O)[C@@H]1CCCN1C(=O)Cc1ccc2c(c1)OCO2`, the IC50 in assay [1] was greater than 400 µM. In addition, the dissociation constant (Kd) in assay [2] is greater than 1000 µM.

For the molecule `COCCNC(=O)[C@@H]1CCCN1C(=O)[C@H](N)Cc1ccc(Cl)cc1`, the IC50 in assay [1] was greater than 400 µM. In assay [2], this molecule came in with a Kd of 140 µM.

The molecule `N[C@H](Cc1ccc(Cl)cc1)C(=O)N1CCC[C@H]1C(=O)NCc1cccs1` had an IC50 in assay [1] of 13 µM. In assay [2], this molecule returned a Kd of 2.2 µM.

The molecule `CNC(=O)[C@@H]1CCCN1C(=O)[C@H](NS(=O)(=O)Cc1ccccc1)C1CCCCC1` yielded an IC50 in assay [1] of 170 µM. For the same molecule, binding in assay [2] was put at a Kd of 35 µM.

`COCCNC(=O)[C@@H]1CCCN1C(=O)[C@H](O)C1CCCCC1` gave an IC50 in assay [1] greater than 400 µM. In assay [2], this molecule had a Kd greater than 1000 µM.

On to `CCCNC(=O)[C@@H]1CCCN1C(=O)CC(c1ccccc1)c1ccccc1`, for which the IC50 in assay [1] is greater than 400 µM. For the same molecule, in assay [2], the Kd is 270 µM.

Molecule `O=C(NCc1cccs1)[C@@H]1CCCN1C(=O)CC(c1ccccc1)c1ccccc1` registered an IC50 in assay [1] of 120 µM. Moreover, the Kd in assay [2] was 34 µM.

In turn, `N[C@@H](C(=O)N1CCC[C@H]1C(=O)NCc1cccs1)C(c1ccccc1)c1ccccc1` registered a half-maximal inhibitory concentration (IC50) in assay [1] of 1.6 µM. The same molecule had a Kd in assay [2] of 0.27 µM.

Consider `CNC(=O)[C@@H]1CCCN1C(=O)[C@H](N)C1CCCCC1`, for which, in assay [1], the IC50 is greater than 400 µM. This molecule displayed a Kd in assay [2] of 790 µM.

Regarding `O=C(NCc1cccs1)[C@@H]1CCCN1C(=O)CCc1ccc(Cl)cc1`, the IC50 in assay [1] was greater than 400 µM. In assay [2], the Kd was 700 µM.

In assay [1], `CCCNC(=O)[C@@H]1CCCN1C(=O)Cc1ccc2c(c1)OCO2` displayed an IC50 greater than 400 µM. In addition, in assay [2], the Kd is greater than 1000 µM.

As to `O=C(NCc1cccs1)[C@@H]1CCCN1C(=O)CC1(O)c2ccccc2-c2ccccc21`, 49 µM corresponded to half-maximal inhibition in assay [1] (IC50). The same molecule displayed a Kd in assay [2] of 23 µM.

As for `N[C@@H](C(=O)N1CCC[C@H]1C(=O)NCc1cccs1)C1CCCCC1`, the IC50 in assay [1] turned out to be 4.2 µM. In assay [2], the Kd worked out at 1.1 µM.

Molecule `CCCNC(=O)[C@@H]1CCCN1C(=O)[C@H](N)C1CCCCC1` returned an IC50 in assay [1] of 120 µM. The same molecule had an equilibrium dissociation constant (Kd) in assay [2] of 27 µM.

`COCCNC(=O)[C@@H]1CCCN1C(=O)[C@H](N)C1CCCCC1`: in assay [1], the half-maximal inhibitory concentration (IC50) was greater than 400 µM. Besides, the Kd in assay [2] was determined as 110 µM.

With `CNC(=O)[C@@H]1CCCN1C(=O)[C@H](N)Cc1ccc(Cl)cc1`, the IC50 in assay [1] was greater than 400 µM. Besides, the affinity in assay [2], expressed as Kd, was 550 µM.

As for `O=C(NCc1cccs1)[C@@H]1CCCN1C(=O)CC1CCCCC1`, the IC50 in assay [1] is greater than 400 µM. The molecule further yielded a Kd in assay [2] of 1000 µM.

The molecule `CCCNC(=O)[C@@H]1CCCN1C(=O)CC1CCCCC1` came in with an IC50 in assay [1] greater than 400 µM. The same molecule showed a Kd in assay [2] greater than 1000 µM.

As for `CNC(=O)[C@@H]1CCCN1C(=O)[C@H](N)C(c1ccccc1)c1ccccc1`, half-maximal inhibition in assay [1] (IC50) was put at 230 µM. The molecule also registered a Kd in assay [2] of 38 µM.

The molecule `CCCNC(=O)[C@@H]1CCCN1C(=O)CC1(O)c2ccccc2-c2ccccc21` displayed an IC50 in assay [1] of 380 µM. In assay [2], this molecule came in with a Kd of 99 µM.

Consider `COCCNC(=O)[C@@H]1CCCN1C(=O)Cc1ccc2c(c1)OCO2`, for which the IC50 in assay [1] is greater than 400 µM. In assay [2], this molecule had a Kd greater than 1000 µM.

The molecule `CNC(=O)[C@@H]1CCCN1C(=O)CCc1ccc(Cl)cc1` gave an IC50 in assay [1] greater than 400 µM. Besides, the equilibrium dissociation constant (Kd) in assay [2] was greater than 1000 µM.

For `COCCNC(=O)[C@@H]1CCCN1C(=O)CC(c1ccccc1)c1ccccc1`, in assay [1], the IC50 was greater than 400 µM. In assay [2], this molecule yielded a Kd greater than 1000 µM.

The record behind these values is ChEMBL document CHEMBL1138481, “Compounds binding to the S2-S3 pockets of thrombin” (J Med Chem, 2009).
